Key:
Assay in all cases: relative viability (nuclei count vs DMSO), 5 days (fraction); higher = more cells survive
[1] = test system: A-427
In short: (§1)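 Each reported value is a median over duplicate plates. It expresses relative viability: treated-well nuclei count divided by vehicle-well nuclei count. Lung cancer cell lines in 1536-well plates were dosed by pin tool a day after seeding, alone with one drug or with a fixed anchor-drug dose plus five library-drug doses (not always all listed) in √10 steps, and nuclei were counted after 5 days.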

[2] = test system: LU99A
In short: as §1

[3] = test system: HARA
In short: as §1

[4] = test system: NCI-H441
In short: as §1

[5] = test system: LCLC-97TM1
In short: as §1

[6] = test system: NCI-H23
In short: as §1

[7] = test system: NCI-H460
In short: as §1

[8] = test system: SK-LU-1
In short: as §1

[9] = test system: NCI-H2023
In short: as §1

[10] = test system: NCI-H1666
In short: as §1

[11] = test system: NCI-H2126
In short: as §1

[12] = test system: LOU-NH91
In short: as §1

[13] = test system: NCI-H650
In short: as §1

[14] = test system: NCI-H1915
In short: as §1

[15] = test system: PC-3 [JPC-3]
In short: as §1

[16] = test system: NCI-H1395
In short: as §1

[17] = test system: NCI-H1793
In short: as §1

[18] = test system: NCI-H1755
In short: as §1

[19] = test system: NCI-H1944
In short: as §1

[20] = test system: NCI-H322M
In short: as §1

[21] = test system: LXF-289
In short: as §1

[22] = test system: NCI-H2170
In short: as §1

[23] = test system: BEN
In short: as §1

[24] = test system: NCI-H2342
In short: as §1

`CCCCCCCCCCCC1=C(O)C(=O)C=C(O)C1=O` [Embelin] + CC(=O)Nc1cccc(-n2c(=O)n(C3CC3)c(=O)c3c(Nc4ccc(I)cc4F)n(C)c(=O)c(C)c32)c1 [Trametinib] (partner 0.02 µM) was tested, and the relative viability ([1]; first compound 0.08 µM) was 0.732, the relative viability ([1]; first compound 0.8 µM) was 0.785 and the relative viability ([1]; first compound 2.53 µM) was 0.7. It also gave a relative viability ([1]; first compound 8 µM) of 0.624, a relative viability ([2]; first compound 0.08 µM) of 0.631 and a relative viability ([2]; first compound 0.8 µM) of 0.596. The relative viability ([2]; first compound 2.53 µM) was 0.561, the relative viability ([2]; first compound 8 µM) was 0.526 and the relative viability ([3]; first compound 0.08 µM) was 0.785. It also gave a relative viability ([3]; first compound 0.8 µM) of 1.05, a relative viability ([3]; first compound 2.53 µM) of 0.637 and a relative viability ([3]; first compound 8 µM) of 0.536. It also gave a relative viability ([4]; first compound 0.08 µM) of 0.399, a relative viability ([4]; first compound 0.8 µM) of 0.584 and a relative viability ([4]; first compound 2.53 µM) of 0.552. It also gave a relative viability ([4]; first compound 8 µM) of 0.465, a relative viability ([5]; first compound 0.08 µM) of 0.201 and a relative viability ([5]; first compound 0.8 µM) of 0.18. The relative viability ([5]; first compound 2.53 µM) was 0.232, the relative viability ([5]; first compound 8 µM) was 0.184 and the relative viability ([6]; first compound 0.08 µM) was 0.344. For the same molecule, the relative viability ([6]; first compound 0.8 µM) was 0.476, the relative viability ([6]; first compound 2.53 µM) was 0.437 and the relative viability ([6]; first compound 8 µM) was 0.396. It also gave a relative viability ([7]; first compound 0.08 µM) of 0.173, a relative viability ([7]; first compound 0.8 µM) of 0.202 and a relative viability ([7]; first compound 2.53 µM) of 0.151. For the same molecule, the relative viability ([7]; first compound 8 µM) was 0.112, the relative viability ([8]; first compound 0.08 µM) was 0.505 and the relative viability ([8]; first compound 0.8 µM) was 0.542. The relative viability ([8]; first compound 2.53 µM) was 0.691, the relative viability ([8]; first compound 8 µM) was 0.39 and the relative viability ([9]; first compound 0.08 µM) was 0.568. For the same molecule, the relative viability ([9]; first compound 0.8 µM) was 0.654, the relative viability ([9]; first compound 2.53 µM) was 0.613 and the relative viability ([9]; first compound 8 µM) was 0.495. For the same molecule, the relative viability ([10]; first compound 0.08 µM) was 0.813, the relative viability ([10]; first compound 0.8 µM) was 0.824 and the relative viability ([10]; first compound 2.53 µM) was 0.838. For the same molecule, the relative viability ([10]; first compound 8 µM) was 0.91, the relative viability ([11]; first compound 0.08 µM) was 0.495 and the relative viability ([11]; first compound 0.8 µM) was 0.548. It also gave a relative viability ([11]; first compound 2.53 µM) of 0.553, a relative viability ([11]; first compound 8 µM) of 0.546 and a relative viability ([12]; first compound 0.08 µM) of 0.785. The relative viability ([12]; first compound 0.8 µM) was 0.831, the relative viability ([12]; first compound 2.53 µM) was 0.828 and the relative viability ([12]; first compound 8 µM) was 0.805. The relative viability ([13]; first compound 0.08 µM) was 0.977, the relative viability ([13]; first compound 0.8 µM) was 1.47 and the relative viability ([13]; first compound 2.53 µM) was 1.02. It also gave a relative viability ([13]; first compound 8 µM) of 0.987, a relative viability ([14]; first compound 0.08 µM) of 0.319 and a relative viability ([14]; first compound 0.8 µM) of 0.33. For the same molecule, the relative viability ([14]; first compound 2.53 µM) was 0.263, the relative viability ([14]; first compound 8 µM) was 0.295 and the relative viability ([15]; first compound 0.08 µM) was 0.684. For the same molecule, the relative viability ([15]; first compound 0.8 µM) was 0.75, the relative viability ([15]; first compound 2.53 µM) was 0.788 and the relative viability ([15]; first compound 8 µM) was 0.614. For the same molecule, the relative viability ([16]; first compound 0.08 µM) was 0.996, the relative viability ([16]; first compound 0.8 µM) was 1.14 and the relative viability ([16]; first compound 2.53 µM) was 1.14. It also gave a relative viability ([16]; first compound 8 µM) of 1.14, a relative viability ([17]; first compound 0.08 µM) of 0.398 and a relative viability ([17]; first compound 0.8 µM) of 0.446. The relative viability ([17]; first compound 2.53 µM) was 0.511, the relative viability ([17]; first compound 8 µM) was 0.419 and the relative viability ([18]; first compound 0.08 µM) was 0.816. For the same molecule, the relative viability ([18]; first compound 0.8 µM) was 0.75, the relative viability ([18]; first compound 2.53 µM) was 0.841 and the relative viability ([18]; first compound 8 µM) was 0.723. It also gave a relative viability ([19]; first compound 0.08 µM) of 0.404, a relative viability ([19]; first compound 0.8 µM) of 0.436 and a relative viability ([19]; first compound 2.53 µM) of 0.446. It also gave a relative viability ([19]; first compound 8 µM) of 0.428, a relative viability ([20]; first compound 0.08 µM) of 0.53 and a relative viability ([20]; first compound 0.8 µM) of 0.543. The relative viability ([20]; first compound 2.53 µM) was 0.516, the relative viability ([20]; first compound 8 µM) was 0.49 and the relative viability ([21]; first compound 0.08 µM) was 0.715. The relative viability ([21]; first compound 0.8 µM) was 0.737, the relative viability ([21]; first compound 2.53 µM) was 0.722 and the relative viability ([21]; first compound 8 µM) was 0.676. The relative viability ([22]; first compound 0.08 µM) was 0.946, the relative viability ([22]; first compound 0.8 µM) was 0.877 and the relative viability ([22]; first compound 2.53 µM) was 1.11. The relative viability ([22]; first compound 8 µM) was 0.9, the relative viability ([23]; first compound 0.08 µM) was 1.11 and the relative viability ([23]; first compound 0.8 µM) was 1.16. It also gave a relative viability ([23]; first compound 2.53 µM) of 0.966, a relative viability ([23]; first compound 8 µM) of 0.865 and a relative viability ([24]; first compound 0.08 µM) of 0.95. The relative viability ([24]; first compound 0.8 µM) was 0.806, the relative viability ([24]; first compound 2.53 µM) was 0.866 and the relative viability ([24]; first compound 8 µM) was 0.757.

Source: the supplement of paper PMC10307832
